In ChEMBL document CHEMBL1201862, “PubChem BioAssay data set” (2004):
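Compound exposure: 48 hours, 5 concentrations, 96-well plates. The concentration for 50% growth inhibition is given as GI50.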 Activity calls are given as the source filed them. Cut-off read from the data, not from the text of the source: active = GI50 up to about 1.1 µM and inactive = higher.

How the values were obtained:
Test in all cases: NCI tumour cell line growth inhibition, 48 h
COLO 205 = test system: COLO 205
MCF7 = test system: MCF7
SK-MEL-5 = test system: SK-MEL-5
SW-620 = test system: SW-620
A549 = test system: A549
K562 = test system: K562
HT-29 = test system: HT-29
MDA-MB-435 = test system: MDA-MB-435
CAKI-1 = test system: CAKI-1
MDA-MB-231 = test system: MDA-MB-231
UACC-62 = test system: UACC-62
SF-295 = test system: SF-295
HCT-15 = test system: HCT-15
786-0 = test system: 786-0
RPMI-8226 = test system: RPMI-8226
MDA-N = test system: MDA-N
M14 = test system: M14
LOX IMVI = test system: LOX IMVI
SK-OV-3 = test system: SK-OV-3
HCC 2998 = test system: HCC 2998
MOLT-4 = test system: MOLT-4
PC-3 = test system: PC-3
ACHN = test system: ACHN
HL-60 = test system: HL-60
OVCAR-8 = test system: OVCAR-8
HOP-92 = test system: HOP-92
OVCAR-5 = test system: OVCAR-5
SF-268 = test system: SF-268
SK-MEL-28 = test system: SK-MEL-28
EKVX = test system: EKVX
UO-31 = test system: UO-31
SNB-19 = test system: SNB-19
IGROV-1 = test system: IGROV-1
OVCAR-4 = test system: OVCAR-4
U-251 = test system: U-251
DU-145 = test system: DU-145
NCI-H460 = test system: NCI-H460
HCT-116 = test system: HCT-116
A498 = test system: A498
NCI-H522 = test system: NCI-H522
SNB-75 = test system: SNB-75
CCRF-CEM = test system: CCRF-CEM
NCI-H226 = test system: NCI-H226
UACC-257 = test system: UACC-257
Malme-3M = test system: Malme-3M
KM12 = test system: KM12
TK-10 = test system: TK-10
BT-549 = test system: BT-549
HOP-62 = test system: HOP-62
NCI-H23 = test system: NCI-H23
SK-MEL-2 = test system: SK-MEL-2
OVCAR-3 = test system: OVCAR-3
RXF 393 = test system: RXF 393
NCI/ADR-RES = test system: NCI/ADR-RES
SR = test system: SR
SN12C = test system: SN12C
SF-539 = test system: SF-539
Hs-578T = test system: Hs-578T

SMILES: CCN1CC2=C(NC(=S)NC2c2cc(OC)c(OC)c(OC)c2)/C(=C/c2cc(OC)c(OC)c(OC)c2)C1 (configuration not stated)
- GI50 (COLO 205): 20.1 µM (inactive)
- GI50 (MCF7): 24.6 µM (inactive)
- GI50 (SK-MEL-5): 13.2 µM (inactive)
- GI50 (SW-620): 86.3 µM (inactive)
- GI50 (A549): 26.7 µM (inactive)
- GI50 (K562): 17.3 µM (inactive)
- GI50 (HT-29): 23.4 µM (inactive)
- GI50 (MDA-MB-435): 28.3 µM (inactive)
- GI50 (CAKI-1): 19.4 µM (inactive)
- GI50 (MDA-MB-231): 34.1 µM (inactive)
- GI50 (UACC-62): 31.8 µM (inactive)
- GI50 (SF-295): 53 µM (inactive)
- GI50 (HCT-15): 32 µM
- GI50 (786-0): 28.4 µM (inactive)
- GI50 (RPMI-8226): 14.1 µM (inactive)
- GI50 (MDA-N): 25.8 µM (inactive)
- GI50 (M14): 16.6 µM (inactive)
- GI50 (LOX IMVI): 37.2 µM (inactive)
- GI50 (SK-OV-3): > 100 µM (inactive)
- GI50 (HCC 2998): 29.8 µM (inactive)
- GI50 (MOLT-4): 20.9 µM (inactive)
- GI50 (PC-3): 26.4 µM (inactive)
- GI50 (ACHN): 44.9 µM (inactive)
- GI50 (HL-60): 19.5 µM (inactive)
- GI50 (OVCAR-8): 21.7 µM (inactive)
- GI50 (HOP-92): 18.1 µM (inactive)
- GI50 (OVCAR-5): 14.4 µM (inactive)
- GI50 (SF-268): 6.31 µM (inactive)
- GI50 (SK-MEL-28): 13.7 µM (inactive)
- GI50 (EKVX): 15 µM (inactive)
- GI50 (UO-31): 20.5 µM (inactive)
- GI50 (SNB-19): 36.8 µM (inactive)
- GI50 (IGROV-1): 24.4 µM (inactive)
- GI50 (OVCAR-4): 75.2 µM (inactive)
- GI50 (U-251): 45.1 µM (inactive)
- GI50 (DU-145): 33.3 µM (inactive)
- GI50 (NCI-H460): 46.8 µM (inactive)
- GI50 (HCT-116): 27.7 µM (inactive)
- GI50 (A498): 27.3 µM (inactive)
- GI50 (NCI-H522): 10.6 µM (inactive)
- GI50 (SNB-75): 2.74 µM (inactive)
- GI50 (CCRF-CEM): 37.4 µM (inactive)
- GI50 (NCI-H226): 27.5 µM (inactive)
- GI50 (UACC-257): 59 µM (inactive)
- GI50 (Malme-3M): 0.871 µM (active)
- GI50 (KM12): 98.6 µM (inactive)
- GI50 (TK-10): 36.1 µM (inactive)
- GI50 (BT-549): 46.5 µM (inactive)
- GI50 (HOP-62): 50.6 µM (inactive)
- GI50 (NCI-H23): 38.2 µM (inactive)
- GI50 (SK-MEL-2): 70.8 µM (inactive)
- GI50 (OVCAR-3): 67.5 µM (inactive)
- GI50 (RXF 393): 33 µM (inactive)
- GI50 (NCI/ADR-RES): 30.9 µM (inactive)

SMILES: CCOc1cc(NC(C)=O)ccc1C(=O)NN1C(=O)/C(=C/c2cc(OC)c(OC)c(OC)c2)N=C1c1ccccc1
- GI50 (COLO 205): > 100 µM (inactive)
- GI50 (MCF7): > 100 µM (inactive)
- GI50 (SK-MEL-5): 65.8 µM (inactive)
- GI50 (SW-620): > 100 µM (inactive)
- GI50 (A549): > 100 µM (inactive)
- GI50 (K562): > 100 µM (inactive)
- GI50 (HT-29): > 100 µM (inactive)
- GI50 (MDA-MB-435): > 100 µM (inactive)
- GI50 (CAKI-1): > 100 µM (inactive)
- GI50 (UACC-62): > 100 µM (inactive)
- GI50 (SR): > 100 µM (inactive)
- GI50 (SF-295): > 100 µM (inactive)
- GI50 (HCT-15): > 100 µM
- GI50 (786-0): > 100 µM (inactive)
- GI50 (MDA-N): > 100 µM (inactive)
- GI50 (M14): 64.9 µM (inactive)
- GI50 (LOX IMVI): > 100 µM (inactive)
- GI50 (SK-OV-3): > 100 µM (inactive)
- GI50 (HCC 2998): > 100 µM (inactive)
- GI50 (SN12C): > 100 µM (inactive)
- GI50 (MOLT-4): > 100 µM (inactive)
- GI50 (ACHN): > 100 µM (inactive)
- GI50 (HL-60): > 100 µM (inactive)
- GI50 (OVCAR-8): 63.5 µM (inactive)
- GI50 (HOP-92): 23 µM (inactive)
- GI50 (OVCAR-5): > 100 µM (inactive)
- GI50 (SF-268): 86.9 µM (inactive)
- GI50 (SK-MEL-28): > 100 µM (inactive)
- GI50 (EKVX): > 100 µM (inactive)
- GI50 (UO-31): > 100 µM (inactive)
- GI50 (SNB-19): > 100 µM (inactive)
- GI50 (IGROV-1): > 100 µM (inactive)
- GI50 (OVCAR-4): > 100 µM (inactive)
- GI50 (SF-539): > 100 µM (inactive)
- GI50 (NCI-H460): 91.6 µM (inactive)
- GI50 (HCT-116): > 100 µM (inactive)
- GI50 (A498): > 100 µM (inactive)
- GI50 (NCI-H522): 28.3 µM (inactive)
- GI50 (CCRF-CEM): > 100 µM (inactive)
- GI50 (NCI-H226): > 100 µM (inactive)
- GI50 (UACC-257): > 100 µM (inactive)
- GI50 (Malme-3M): 53.5 µM (inactive)
- GI50 (KM12): 37.2 µM (inactive)
- GI50 (BT-549): 16.3 µM (inactive)
- GI50 (NCI-H23): > 100 µM (inactive)
- GI50 (OVCAR-3): > 100 µM (inactive)
- GI50 (Hs-578T): > 100 µM (inactive)
- GI50 (NCI/ADR-RES): > 100 µM (inactive)
